Measurements from patent publication US20030013099A1, “Genes regulated by DNA methylation in colon tumors” (priority 2001, published 2003).

Tests used:
HT29 cells = assay: microarray differential expression, HT29 cells treated with 500 nM Aza; type: cell-based, human; settings: vs untreated, log base 2, negative = upregulation
Description: HT29 cells were derived from a Grade II adenocarcinoma of the colon obtained from a person. HCT116 cells are a subpopulation of malignant cells isolated from a primary cell culture of a single human colonic carcinoma (Brattain et al. (1981) Cancer Res 41:1751-6). HMEC cells are a primary human epithelial cell line derived from the breast tissue of a normal donor. HT29 and HCT116 colorectal carcinoma cells (American Type Culture Collection, Manassas Va.) were cultured in McCoy's medium supplemented with 10% fetal bovine serum (Invitrogen) at 37° C. and 5% CO2. Treated cells were exposed to 500 nM 5-aza-2-deoxycytidine (Aza; Sigma-Aldrich) 24 hours after passage in complete culture medium. Control cultures were treated in parallel with phosphate buffered saline vehicle. After twenty-four hours, culture medium was replaced with drug-free medium. Control and Aza-treated cells were subcultured at equal densities at 1 and 5 days after the initial treatment, and proliferation was measured at the subsequent time point using a Coulter counter (Beckman Coulter, Fullerton Calif.). Cells were harvested 5 days after the initial treatment.
Cells were harvested and lysed in 1 ml of TRIZOL reagent (5×10^6 cells/ml; Invitrogen). The lysates were vortexed thoroughly and incubated at room temperature for 2-3 minutes and extracted with 0.5 ml chloroform. The extract was mixed, incubated at room temperature for 5 minutes, and centrifuged at 16,000× g for 15 minutes at 4° C. The aqueous layer was collected, and an equal volume of isopropanol was added. Samples were mixed, incubated at room temperature for 10 minutes, and centrifuged at 16,000× g for 20 minutes at 4° C. The supernatant was removed, and the RNA pellet was washed with 1 ml of 70% ethanol, centrifuged at 16,000× g at 4° C., and resuspended in RNAse-free water. The concentration of the RNA was determined by measuring the optical density at 260 nm.
Poly(A) RNA was prepared using an OLIGOTEX mRNA kit (Qiagen) with the following modifications: OLIGOTEX beads were washed in tubes instead of on spin columns, resuspended in elution buffer, and then loaded onto spin columns to recover mRNA. To obtain maximum yield, the mRNA was eluted twice.
Each poly(A) RNA sample was reverse transcribed using MMLV reverse-transcriptase, 0.05 pg/μl oligo-d(T) primer (21mer), 1× first strand buffer, 0.03 units/ul RNAse inhibitor, 500 uM dAT?, 500 uM dGTP, 500 uM dTTP, 40 uM dCTP, and 40 uM either dCTP-Cy3 or dCTP-Cy5 (APB). The reverse transcription reaction was performed in a […] volume containing 200 ng poly(A) RNA using the GEMBRIGHT kit (Incyte Genomics). Specific control poly(A) RNAs (YCFRO6, YCFR45, YCFR67, YCFR85, YCFR43, YCFR22, YCFR23, YCFR25, YCFR44, YCFR26) were synthesized by in vitro transcription from non-coding yeast genomic DNA (W. Lei, unpublished). As quantitative controls, control mRNAs (YCFRO6, YCFR45, YCFR67, and YCFR85) at 0.002 ng, 0.02 ng, 0.2 ng, and 2 ng were diluted into reverse transcription reaction at ratios of 1:100,000, 1:10,000, 1:1000, 1:100 (w/w) to sample mRNA, respectively. To sample differential expression patterns, control mRNAs (YCFR43, YCFR22, YCFR23, YCFR25, YCFR44, YCFR26) were diluted into reverse transcription reaction at ratios of 1:3, 3:1, 1:10, 10:1, 1:25, 25:1 (w/w) to sample mRNA. Reactions were incubated at 37° C. for 2 hours, treated with […] of 0.5M sodium hydroxide, and incubated for 20 minutes at 85° C. to the stop the reaction and degrade the RNA.
cDNAs were purified using two successive CHROMA SPIN 30 gel filtration spin columns (Clontech). Cy3- and Cy5-labeled reaction samples were combined as described below and ethanol precipitated using […] of 100% ethanol. The cDNAs were then dried to completion using a SpeedVAC system (Savant Instruments, Holbrook N.Y.) and resuspended in 14 μl 5× SSC, 0.2% SDS. […]

HT-29 cells = settings: Aza treatment; inhibition parallels induction of IFN responsive genes; cited from earlier work

Nc1ncn([C@H]2C[C@H](O)[C@@H](CO)O2)c(=O)n1 [Aza, 5-aza-2-deoxycytidine]
differential expression, Clone ID 2416222, HT29 t/ Aza (5d) (HT29 cells; SEQ ID NO:1 hypothetical protein): −1.74
differential expression, Clone ID 4103545, HT29 t/ Aza (5d) (HT29 cells; SEQ ID NO:2 Incyte Unique): −1.89
differential expression, Clone ID 322569, HT29 t/ Aza (5d) (HT29 cells; SEQ ID NO:3 interferon-inducible protein): −4.17
differential expression, Clone ID 5322134, HT29 t/ Aza (5d) (HT29 cells; SEQ ID NO:5 chromosome 6p21.3, HLA Class I region): −2.12
differential expression, Clone ID 1698458, HT29 t/ Aza (5d) (HT29 cells; SEQ ID NO:6 unnamed protein product): −1.79
differential expression, Clone ID 1871523, HT29 t/ Aza (5d) (HT29 cells; SEQ ID NO:7 KIAA1046 protein): −1.07
differential expression, Clone ID 6024084, HT29 t/ Aza (5d) (HT29 cells; SEQ ID NO:8 putative tumor antigen): −2.79
differential expression, Clone ID 3810006, HT29 t/ Aza (5d) (HT29 cells; SEQ ID NO:9 Incyte Unique): −0.92
differential expression, Clone ID 4508879, HT29 t/ Aza (5d) (HT29 cells; SEQ ID NO:10 Incyte Unique): −0.85
differential expression, Clone ID 4225379, HT29 t/ Aza (5d) (HT29 cells; SEQ ID NO:11 U 6 RNA): −0.85
differential expression, Clone ID 3463713, HT29 t/ Aza (5d) (HT29 cells; SEQ ID NO:12 cDNA clone ZD16H10): −1.87
differential expression, Clone ID 2998017, HT29 t/ Aza (5d) (HT29 cells; SEQ ID NO:13, 14 T-cell receptor gamma): −1.14
differential expression, Clone ID 4318273, HT29 t/ Aza (5d) (HT29 cells; SEQ ID NO:15 pTR5 repetitive sequence): −1.58
differential expression, Clone ID 1649414, HT29 t/ Aza (5d) (HT29 cells; SEQ ID NO:16 Hep27 protein): −1.20
differential expression, Clone ID 1684742, HT29 t/ Aza (5d) (HT29 cells; SEQ ID NO:18 cDNA FLJ20222): −0.85
differential expression, Clone ID 2825816, HT29 t/ Aza (5d) (HT29 cells; SEQ ID NO:19 KIAA0412): −1.84
differential expression, Clone ID 2440943, HT29 t/ Aza (5d) (HT29 cells; SEQ ID NO:21 Incyte Unique): −1.07
differential expression, Clone ID 1294339, HT29 t/ Aza (5d) (HT29 cells; SEQ ID NO:22 PDGF-B): −0.93
differential expression, Clone ID 5104741, HT29 t/ Aza (5d) (HT29 cells; SEQ ID NO:23 cDNA FLJ10570): −0.93
differential expression, Clone ID 1855389, HT29 t/ Aza (5d) (HT29 cells; SEQ ID NO:24 pTR7 repetitive sequence): −2.09
differential expression, Clone ID 5207613, HT29 t/ Aza (5d) (HT29 cells; SEQ ID NO:25 chromosome 21 segment HS21C049): −2.10
differential expression, Clone ID 3207902, HT29 t/ Aza (5d) (HT29 cells; SEQ ID NO:26 hypothetical protein): −1.29
differential expression, Clone ID 4999769, HT29 t/ Aza (5d) (HT29 cells; SEQ ID NO:27 ZNFpT17): −1.26
differential expression, Clone ID 408886, HT29 t/ Aza (5d) (HT29 cells; SEQ ID NO:28 transketolase): −1.31
differential expression, Clone ID 4764233, HT29 t/ Aza (5d) (HT29 cells; SEQ ID NO:30 GAGE-8): −2.00
differential expression, Clone ID 2511379, HT29 t/ Aza (5d) (HT29 cells; SEQ ID NO:31 GAGE-7B): −1.98
differential expression, Clone ID 2471817, HT29 t/ Aza (5d) (HT29 cells; SEQ ID NO:33 cDNA clone YU62C03): −1.20
differential expression, Clone ID 3333736, HT29 t/ Aza (5d) (HT29 cells; SEQ ID NO:34 MAGE-11 antigen): −1.38
differential expression, Clone ID 1304365, HT29 t/ Aza (5d) (HT29 cells; SEQ ID NO:35 GAGE-8): −2.48
differential expression, Clone ID 2657056, HT29 t/ Aza (5d) (HT29 cells; SEQ ID NO:37, 38 MAGE-4b antigen): −1.93
differential expression, Clone ID 2507719, HT29 t/ Aza (5d) (HT29 cells; SEQ ID NO:39 MAGE-9 antigen): −2.32
differential expression, Clone ID 4688, HT29 t/ Aza (5d) (HT29 cells; SEQ ID NO:41 MAGE-1): −2.03
differential expression, Clone ID 2068708, HT29 t/ Aza (5d) (HT29 cells; SEQ ID NO:42 HM74): −1.17
differential expression, Clone ID 23770, HT29 t/ Aza (5d) (HT29 cells; SEQ ID NO:43 1-8D): −2.99
differential expression, Clone ID 1616783, HT29 t/ Aza (5d) (HT29 cells; SEQ ID NO:45 Incyte Unique): −0.84
differential expression, Clone ID 820942, HT29 t/ Aza (5d) (HT29 cells; SEQ ID NO:46 cDNA FLJ20120): −0.58
differential expression, Clone ID 891322, HT29 t/ Aza (5d) (HT29 cells; SEQ ID NO:47 Incyte Unique): 0.00
differential expression, Clone ID 2755836, HT29 t/ Aza (5d) (HT29 cells; SEQ ID NO:48 U5 A RNA): −0.68
differential expression, Clone ID 1227521, HT29 t/ Aza (5d) (HT29 cells; SEQ ID NO:49 phospholipid scramblase 1): −2.10
differential expression, Clone ID 2200842, HT29 t/ Aza (5d) (HT29 cells; SEQ ID NO:50 retinoid inducible gene 1): −1.74
differential expression, Clone ID 2238363, HT29 t/ Aza (5d) (HT29 cells; SEQ ID NO:51 interferon induced): −1.85
differential expression, Clone ID 1495382, HT29 t/ Aza (5d) (HT29 cells; SEQ ID NO:53 TRAIL): −1.07
differential expression, Clone ID 1998269, HT29 t/ Aza (5d) (HT29 cells; SEQ ID NO:55 rhoB): −0.92
differential expression, Clone ID 1919287, HT29 t/ Aza (5d) (HT29 cells; SEQ ID NO:56 hepatitis C-associated microtubular aggregate): −3.12
differential expression, Clone ID 2637446, HT29 t/ Aza (5d) (HT29 cells; SEQ ID NO:57 HE4 protein): −1.07
differential expression, Clone ID 1962141, HT29 t/ Aza (5d) (HT29 cells; SEQ ID NO:58 Similar to keratin 7): −0.43
differential expression, Clone ID 4933404, HT29 t/ Aza (5d) (HT29 cells; SEQ ID NO:60 Incyte Unique): −0.32
differential expression, Clone ID 2150288, HT29 t/ Aza (5d) (HT29 cells; SEQ ID NO:61 Keratin 8): −0.07
differential expression, Clone ID 2697455, HT29 t/ Aza (5d) (HT29 cells; SEQ ID NO:61 Keratin 8): −0.32
growth of HT-29 cells in culture (HT-29 cells): inhibits growth
